In publication PMC4505863 (ACS Chemical Neuroscience, 2014):

How the values were obtained:
[1] = tested on: mice; conditions: cited from earlier work; for doses producing the head twitch in mice: 34−36
[2] = molecular target: T1, 5-HT2A receptor (Homo sapiens, UniProt P28223); experiment: h5-HT2A affinity, antagonist radioligand [3H]ketanserin; format: binding
[3] = molecular target: T1, 5-HT2A receptor; experiment: h5-HT2A affinity, agonist radioligand [125I]DOI; format: binding
[4] = molecular target: T2, human 5-HT2C receptor (Homo sapiens, UniProt P28335); experiment: h5-HT2C affinity, antagonist radioligand [3H]mesulergine; format: binding
T2 sequence (P28335 33-458): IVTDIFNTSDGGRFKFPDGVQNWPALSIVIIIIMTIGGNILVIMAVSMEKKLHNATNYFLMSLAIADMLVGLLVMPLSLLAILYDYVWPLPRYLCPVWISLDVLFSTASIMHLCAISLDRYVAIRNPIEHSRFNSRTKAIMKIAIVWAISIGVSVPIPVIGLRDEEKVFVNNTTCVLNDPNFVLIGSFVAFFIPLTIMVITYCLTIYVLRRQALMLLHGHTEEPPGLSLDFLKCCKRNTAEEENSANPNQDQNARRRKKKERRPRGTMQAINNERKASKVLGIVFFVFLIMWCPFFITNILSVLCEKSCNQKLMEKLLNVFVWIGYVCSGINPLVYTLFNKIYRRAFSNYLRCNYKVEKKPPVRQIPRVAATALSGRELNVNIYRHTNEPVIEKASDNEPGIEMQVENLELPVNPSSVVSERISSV

[5] = molecular target: T2, human 5-HT2C receptor; experiment: h5-HT2C affinity, agonist radioligand [125I]DOI; format: binding
[6] = molecular target: 5-HT2B (Homo sapiens, UniProt P41595); experiment: PDSP screening affinity 5-HT2B; format: binding; conditions: 5-HT2B pKi ± SEM
[7] = molecular target: T3, 5-HT1A (Homo sapiens, UniProt P08908); experiment: PDSP screening affinity 5-HT1A; format: binding; conditions: 5-HT1A affinity
T3 sequence (P08908 1-422): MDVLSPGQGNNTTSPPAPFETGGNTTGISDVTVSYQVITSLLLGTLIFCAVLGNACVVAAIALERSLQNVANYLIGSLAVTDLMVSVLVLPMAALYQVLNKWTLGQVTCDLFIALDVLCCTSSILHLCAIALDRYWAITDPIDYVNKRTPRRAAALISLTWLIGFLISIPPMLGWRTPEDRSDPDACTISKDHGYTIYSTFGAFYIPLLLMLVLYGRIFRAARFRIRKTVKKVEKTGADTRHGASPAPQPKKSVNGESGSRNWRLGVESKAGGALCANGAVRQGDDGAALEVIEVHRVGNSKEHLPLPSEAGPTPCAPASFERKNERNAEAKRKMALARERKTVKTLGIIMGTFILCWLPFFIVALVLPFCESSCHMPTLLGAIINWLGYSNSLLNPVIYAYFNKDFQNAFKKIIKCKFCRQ

[8] = molecular target: 5-HT1B (Homo sapiens, UniProt P28222); experiment: PDSP screening affinity 5-HT1B; format: binding; conditions: 5-HT1B affinity
[9] = molecular target: 5-HT1D (Homo sapiens, UniProt P28221); experiment: PDSP screening affinity 5-HT1D; format: binding
[10] = molecular target: 5-ht1e (Homo sapiens, UniProt P28566); experiment: PDSP screening affinity 5-ht1e; format: binding
[11] = molecular target: T4, 5-HT3 (Homo sapiens, UniProt P46098); experiment: PDSP screening affinity 5-HT3; format: binding
T4 sequence (P46098 24-478): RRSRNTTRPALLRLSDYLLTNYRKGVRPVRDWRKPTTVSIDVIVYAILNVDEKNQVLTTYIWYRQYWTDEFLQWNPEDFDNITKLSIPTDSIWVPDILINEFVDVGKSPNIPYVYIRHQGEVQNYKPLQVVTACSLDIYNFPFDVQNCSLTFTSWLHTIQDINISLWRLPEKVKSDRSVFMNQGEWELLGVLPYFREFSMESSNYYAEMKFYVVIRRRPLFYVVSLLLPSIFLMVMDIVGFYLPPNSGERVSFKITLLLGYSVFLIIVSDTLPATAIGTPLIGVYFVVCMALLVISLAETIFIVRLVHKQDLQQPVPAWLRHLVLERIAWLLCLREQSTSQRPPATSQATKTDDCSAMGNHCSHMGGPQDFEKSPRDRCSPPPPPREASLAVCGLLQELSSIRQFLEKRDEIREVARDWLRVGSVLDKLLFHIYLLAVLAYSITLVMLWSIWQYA

[12] = molecular target: 5-ht5a (Homo sapiens, UniProt P47898); experiment: PDSP screening affinity 5-ht5a; format: binding; conditions: 5-ht5a affinity
[13] = molecular target: 5-HT6 (Homo sapiens, UniProt P50406); experiment: PDSP screening affinity 5-HT6; format: binding; conditions: 5-HT6 affinity
[14] = molecular target: 5-HT7 (Homo sapiens, UniProt P34969); experiment: PDSP screening affinity 5-HT7; format: binding; conditions: 5-HT7 affinity
[15] = molecular target: r5-HT2A (Rattus norvegicus, UniProt P14842); experiment: Ca2+ mobilization assay; format: cell-based
[16] = molecular target: h5-HT2A (Homo sapiens, UniProt P28223); experiment: Ca2+ mobilization assay; format: cell-based
[17] = molecular target: h5-HT2B (Homo sapiens, UniProt P41595); experiment: Ca2+ mobilization assay; format: cell-based
[18] = molecular target: T5, r5-HT2C (Rattus norvegicus, UniProt P08909); experiment: Ca2+ mobilization assay; format: cell-based
T5 sequence (P08909 33-460): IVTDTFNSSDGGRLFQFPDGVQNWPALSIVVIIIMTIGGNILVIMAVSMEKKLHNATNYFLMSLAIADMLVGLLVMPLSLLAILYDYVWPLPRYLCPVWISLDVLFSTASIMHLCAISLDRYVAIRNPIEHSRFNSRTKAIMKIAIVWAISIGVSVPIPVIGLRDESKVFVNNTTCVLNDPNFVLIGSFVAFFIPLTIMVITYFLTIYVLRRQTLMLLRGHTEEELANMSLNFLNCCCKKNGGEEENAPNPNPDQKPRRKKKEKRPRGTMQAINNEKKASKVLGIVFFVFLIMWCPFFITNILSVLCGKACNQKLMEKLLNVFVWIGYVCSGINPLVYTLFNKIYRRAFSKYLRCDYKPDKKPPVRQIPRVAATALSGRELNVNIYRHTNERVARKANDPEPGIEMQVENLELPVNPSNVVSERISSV

[19] = molecular target: T6, h5-HT2C (Homo sapiens, UniProt P28335); experiment: Ca2+ mobilization assay; format: cell-based
T6 sequence (P28335 33-458): T2 sequence (P28335 33-458)

[20] = tested on: Male C57BL/6J mice; conditions: cited from earlier work
[21] = tested on: rat tail artery; conditions: cited from earlier work

T1 sequence (P28223 whole entry): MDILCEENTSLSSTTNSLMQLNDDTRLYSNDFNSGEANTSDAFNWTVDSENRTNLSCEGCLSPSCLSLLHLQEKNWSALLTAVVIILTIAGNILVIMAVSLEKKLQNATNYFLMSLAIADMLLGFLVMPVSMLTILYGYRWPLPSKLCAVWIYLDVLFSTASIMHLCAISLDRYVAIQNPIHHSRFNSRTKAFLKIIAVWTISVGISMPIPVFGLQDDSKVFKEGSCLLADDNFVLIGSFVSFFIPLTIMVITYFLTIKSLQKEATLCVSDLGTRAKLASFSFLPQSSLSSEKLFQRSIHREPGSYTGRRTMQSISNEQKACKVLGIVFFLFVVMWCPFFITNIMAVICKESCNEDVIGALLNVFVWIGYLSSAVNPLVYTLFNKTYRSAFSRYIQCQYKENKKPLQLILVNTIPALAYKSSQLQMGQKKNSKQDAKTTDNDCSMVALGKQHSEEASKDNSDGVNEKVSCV
h5-HT2B, sequence (P41595 whole entry): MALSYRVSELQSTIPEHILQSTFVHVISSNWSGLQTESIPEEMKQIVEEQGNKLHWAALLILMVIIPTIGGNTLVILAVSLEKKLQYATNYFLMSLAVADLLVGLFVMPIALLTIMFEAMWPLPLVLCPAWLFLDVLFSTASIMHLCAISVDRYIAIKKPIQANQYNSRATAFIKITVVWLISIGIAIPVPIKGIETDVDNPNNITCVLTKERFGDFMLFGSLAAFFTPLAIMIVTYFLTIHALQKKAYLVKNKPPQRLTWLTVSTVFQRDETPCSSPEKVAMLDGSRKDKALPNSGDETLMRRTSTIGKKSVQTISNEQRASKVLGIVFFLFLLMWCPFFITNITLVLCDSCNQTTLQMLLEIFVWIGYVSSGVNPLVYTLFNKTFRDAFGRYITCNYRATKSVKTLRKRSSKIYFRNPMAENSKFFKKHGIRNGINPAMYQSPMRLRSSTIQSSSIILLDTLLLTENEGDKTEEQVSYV
h5-HT2A, sequence (P28223 whole entry): as the sequence (P28223 whole entry) above
r5-HT2A, sequence (P14842 whole entry): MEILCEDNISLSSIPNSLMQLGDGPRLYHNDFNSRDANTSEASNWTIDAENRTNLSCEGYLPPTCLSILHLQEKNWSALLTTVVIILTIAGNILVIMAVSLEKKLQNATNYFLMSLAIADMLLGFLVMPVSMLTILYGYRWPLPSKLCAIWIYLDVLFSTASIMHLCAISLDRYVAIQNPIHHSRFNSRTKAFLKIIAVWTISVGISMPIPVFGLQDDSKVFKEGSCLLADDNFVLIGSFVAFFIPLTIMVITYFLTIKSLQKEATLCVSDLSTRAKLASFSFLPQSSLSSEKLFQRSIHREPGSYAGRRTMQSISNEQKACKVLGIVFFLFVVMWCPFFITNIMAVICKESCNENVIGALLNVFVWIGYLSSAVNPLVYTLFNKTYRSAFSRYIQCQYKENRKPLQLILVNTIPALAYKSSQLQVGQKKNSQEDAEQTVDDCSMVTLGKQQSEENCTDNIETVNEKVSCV
5-HT2B, sequence (P41595 whole entry): as the sequence (P41595 whole entry) above
5-HT1D, sequence (P28221 whole entry): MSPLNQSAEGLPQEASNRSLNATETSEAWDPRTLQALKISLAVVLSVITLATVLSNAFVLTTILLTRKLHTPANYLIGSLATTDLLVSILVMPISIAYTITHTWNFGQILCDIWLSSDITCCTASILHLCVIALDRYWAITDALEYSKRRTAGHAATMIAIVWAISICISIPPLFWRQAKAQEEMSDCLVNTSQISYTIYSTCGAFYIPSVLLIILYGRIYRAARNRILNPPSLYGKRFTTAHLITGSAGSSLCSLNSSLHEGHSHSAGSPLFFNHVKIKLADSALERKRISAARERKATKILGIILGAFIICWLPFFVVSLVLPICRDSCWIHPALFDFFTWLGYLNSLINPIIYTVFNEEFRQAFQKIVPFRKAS
5-HT6, sequence (P50406 whole entry): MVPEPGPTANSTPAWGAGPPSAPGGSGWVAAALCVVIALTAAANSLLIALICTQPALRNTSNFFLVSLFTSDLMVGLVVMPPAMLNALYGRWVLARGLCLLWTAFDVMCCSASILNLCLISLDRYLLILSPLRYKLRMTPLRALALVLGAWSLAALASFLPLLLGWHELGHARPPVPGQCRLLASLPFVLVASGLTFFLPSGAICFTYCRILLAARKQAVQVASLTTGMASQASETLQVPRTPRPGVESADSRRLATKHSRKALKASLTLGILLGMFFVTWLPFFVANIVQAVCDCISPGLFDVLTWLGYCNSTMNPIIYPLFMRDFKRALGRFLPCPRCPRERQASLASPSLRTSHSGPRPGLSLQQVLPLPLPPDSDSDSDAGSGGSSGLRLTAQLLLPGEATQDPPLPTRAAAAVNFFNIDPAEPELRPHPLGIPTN
5-ht5a, sequence (P47898 whole entry): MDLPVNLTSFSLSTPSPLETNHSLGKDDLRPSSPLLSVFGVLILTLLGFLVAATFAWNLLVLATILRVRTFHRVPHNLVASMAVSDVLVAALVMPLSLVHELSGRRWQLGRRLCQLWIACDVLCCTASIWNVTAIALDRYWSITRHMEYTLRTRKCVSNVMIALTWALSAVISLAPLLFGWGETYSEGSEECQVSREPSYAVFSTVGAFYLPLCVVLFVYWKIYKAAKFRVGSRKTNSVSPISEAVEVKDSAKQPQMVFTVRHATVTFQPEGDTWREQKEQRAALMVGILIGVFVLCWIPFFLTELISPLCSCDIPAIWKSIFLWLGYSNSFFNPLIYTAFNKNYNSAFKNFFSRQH
5-HT7, sequence (P34969 whole entry): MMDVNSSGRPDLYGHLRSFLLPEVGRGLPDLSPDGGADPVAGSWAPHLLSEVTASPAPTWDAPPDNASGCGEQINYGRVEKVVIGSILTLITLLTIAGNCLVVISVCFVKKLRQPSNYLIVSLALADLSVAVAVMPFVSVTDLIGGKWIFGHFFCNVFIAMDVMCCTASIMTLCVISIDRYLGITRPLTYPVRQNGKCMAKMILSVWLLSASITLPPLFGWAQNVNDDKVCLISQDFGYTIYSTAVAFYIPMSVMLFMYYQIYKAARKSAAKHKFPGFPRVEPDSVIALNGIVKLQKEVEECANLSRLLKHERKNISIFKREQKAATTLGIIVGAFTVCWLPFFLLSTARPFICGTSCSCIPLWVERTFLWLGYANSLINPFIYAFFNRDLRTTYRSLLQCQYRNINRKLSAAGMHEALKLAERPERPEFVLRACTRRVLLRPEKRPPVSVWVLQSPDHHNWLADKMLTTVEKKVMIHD
5-HT1B, sequence (P28222 whole entry): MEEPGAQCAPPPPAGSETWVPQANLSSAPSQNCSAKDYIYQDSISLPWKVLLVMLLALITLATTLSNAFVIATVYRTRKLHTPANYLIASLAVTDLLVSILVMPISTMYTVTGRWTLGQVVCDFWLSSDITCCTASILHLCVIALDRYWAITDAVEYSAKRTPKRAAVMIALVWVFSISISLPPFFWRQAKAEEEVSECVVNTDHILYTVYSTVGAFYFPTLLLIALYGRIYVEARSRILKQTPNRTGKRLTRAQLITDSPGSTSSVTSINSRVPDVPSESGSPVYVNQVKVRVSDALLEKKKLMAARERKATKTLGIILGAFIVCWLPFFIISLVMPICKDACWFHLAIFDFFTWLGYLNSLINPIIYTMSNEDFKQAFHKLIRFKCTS
5-ht1e, sequence (P28566 whole entry): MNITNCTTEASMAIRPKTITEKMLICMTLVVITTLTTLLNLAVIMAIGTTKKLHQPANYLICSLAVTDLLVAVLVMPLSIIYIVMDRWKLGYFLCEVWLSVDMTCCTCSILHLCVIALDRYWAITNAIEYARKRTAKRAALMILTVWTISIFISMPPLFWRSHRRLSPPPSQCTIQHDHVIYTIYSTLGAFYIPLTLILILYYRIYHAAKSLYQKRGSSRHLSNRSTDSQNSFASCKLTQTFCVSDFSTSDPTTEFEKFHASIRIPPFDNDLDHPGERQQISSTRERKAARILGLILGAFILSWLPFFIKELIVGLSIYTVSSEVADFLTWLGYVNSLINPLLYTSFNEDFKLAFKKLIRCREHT

Compound: CN(C)CCc1c[nH]c2cccc(O)c12 [psilocin]
- doses producing the head twitch in mice [1]: ≤ 1 mg/kg

Compound: CC(N)Cc1c[nH]c2ccccc12 (stereo not drawn) [α-methyltryptamine]
- active dose range, head twitch ([1]; ref 36−38): 3 to 30 mg/kg

Compound: CCCSc1cc(OC)c(CCN)cc1OC [Compound 2C-T-7, 2,5-dimethoxy-4-propylthiophenethylamine]
- doses producing the head twitch in mice [1]: ≤ 1 mg/kg

Compound: COc1cc(C[C@@H](C)N)c(OC)cc1Br [R-DOB, R-(−)-2,5-dimethoxy-4-bromoamphetamine]
- doses producing the head twitch in mice [1]: ≤ 1 mg/kg

Compound: COc1cc(C[C@@H](C)N)c(OC)cc1C [R-DOM, R-(−)-2,5-dimethoxy-4-methylamphetamine]
- doses producing the head twitch in mice [1]: ≤ 1 mg/kg

Compound: COc1cc(CCNCc2ccccc2OC)c(OC)cc1I [Compound 1, N-(2-Methoxybenzyl)-2-(4-iodo-2,5-dimethoxyphenyl)ethan-1-amine]
- Ki [2]: 0.52 nM
- Ki [3]: 0.158 nM
- h5-HT2A Ki ([3]; [125I]DOI): subnanomolar affinity
- Ki [4]: 0.69 nM
- Ki [5]: 0.5 nM
- h5-HT2C Ki ([5]; [125I]DOI): subnanomolar affinity
- Ki [6]: 1.38 nM
- Ki [7]: 1030 nM
- Ki [8]: 5890 nM
- Ki [9]: 533 nM
- Ki [10]: > 10000 nM
- Ki [11]: > 10000 nM
- Ki [12]: 2790 nM
- Ki [13]: 32 nM
- Ki [14]: 1540 nM
- r5-HT2A Emax ([15]; percentage of the maximum response to 5-HT): 79.4 ± 1.1%
- EC50 ([15]; r5-HT2A EC50, Ca2+ mobilization): 11 nM
- EC50 [16]: 4.2 nM
- Emax ([16]; HEK293, read-out: h5-HT2A Emax, percentage of the maximum response to 5-HT): 86.4 ± 1.4%
- Emax ([17]; HEK293, read-out: h5-HT2B Emax): 65 ± 2%
- EC50 ([17]; h5-HT2B pEC50 ± SEM, Ca2+ mobilization, NA = not active, Emax ≤ 15%): 15.5 nM
- EC50 ([18]; r5-HT2C EC50, Ca2+ mobilization): 95 nM
- Emax ([18]; read-out: r5-HT2C Emax): 104 ± 2%
- Emax ([19]; HEK293, read-out: h5HT2C Emax): 92%
- EC50 ([19]; h5HT2C EC50, Ca2+ mobilization): 41.7 nM
- max counts ([20]; HTR counts): 102.6
- activity in the HTR assay (active / inactive) [20]: active
- magnitude of peak effect × vehicle ([20]; mouse head twitch): 16.0 × vehicle
- maximally effective dose ([20]; mouse head twitch): 1 mg/kg
- ED50 mg/kg (95% CI), mouse head twitch ([20]; test duration 30 min, ref 31 (Halberstadt and Geyer)): 0.078 (0.055–0.111) mg/kg
- pEC50, rat tail artery ([21]; agonist potency): 10.09
- Emax, rat tail artery [21]: 30%
